# Results from US9718804B2, “GSK-3 inhibitors” (BRISTOL-MYERS SQUIBB COMPANY, priority 2013, dated 2017).
# pIC50: −log10 of the molar value.
# Assays:
# GSK3β = GSK3β (Homo sapiens, UniProt P49841); test: GSK3β kinase assay (Caliper LabChip, fluoresceinated peptide substrate); type: biochemical; conditions: first value of the cell; 250 pM enzyme, 20 uM ATP, 20 hours at room temperature; read-out: GSK3β/α (nM): GSK3β IC50
# In short: (§1)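 Kinase reactions ran at room temperature for 20 hours, then were stopped with EDTA. Phosphorylated product and unphosphorylated substrate were separated electrophoretically on a LabChip3000, and IC50s came from non-linear regression over eleven compound concentrations.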
# GSK3α = GSK3α (Homo sapiens, UniProt P49840); test: GSK3α kinase assay (Caliper LabChip, fluoresceinated peptide substrate); type: biochemical
# GSK3α, sequence (P49840 whole entry, species assumed): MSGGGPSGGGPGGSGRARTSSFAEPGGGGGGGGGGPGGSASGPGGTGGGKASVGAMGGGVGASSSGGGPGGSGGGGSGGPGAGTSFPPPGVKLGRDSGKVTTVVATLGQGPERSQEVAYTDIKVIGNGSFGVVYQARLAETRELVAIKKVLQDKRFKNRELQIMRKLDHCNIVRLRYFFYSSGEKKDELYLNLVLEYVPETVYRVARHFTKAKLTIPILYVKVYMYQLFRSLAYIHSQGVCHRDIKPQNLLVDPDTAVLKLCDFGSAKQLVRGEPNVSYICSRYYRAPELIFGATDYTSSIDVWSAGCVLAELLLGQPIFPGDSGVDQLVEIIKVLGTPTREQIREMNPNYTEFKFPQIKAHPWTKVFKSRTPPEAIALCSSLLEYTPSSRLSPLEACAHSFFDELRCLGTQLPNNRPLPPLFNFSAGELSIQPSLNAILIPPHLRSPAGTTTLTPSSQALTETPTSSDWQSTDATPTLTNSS
# In short: as §1
# pTau = pTau assay (no method described); type: cell-based
# GSK3β, sequence (P49841 whole entry, species assumed): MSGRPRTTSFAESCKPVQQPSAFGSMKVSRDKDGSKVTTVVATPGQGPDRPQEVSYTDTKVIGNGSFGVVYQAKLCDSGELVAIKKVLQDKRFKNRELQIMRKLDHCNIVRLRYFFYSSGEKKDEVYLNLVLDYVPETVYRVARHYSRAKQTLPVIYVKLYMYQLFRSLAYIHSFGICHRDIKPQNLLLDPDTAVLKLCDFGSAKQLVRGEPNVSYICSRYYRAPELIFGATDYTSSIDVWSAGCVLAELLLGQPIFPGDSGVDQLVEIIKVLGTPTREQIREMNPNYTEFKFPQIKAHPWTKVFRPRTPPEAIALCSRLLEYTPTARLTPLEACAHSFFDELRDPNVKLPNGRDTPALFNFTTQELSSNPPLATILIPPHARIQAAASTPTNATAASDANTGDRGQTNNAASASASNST
Compound,IC50 (GSK3β) [nM],pIC50 (GSK3α),pIC50 (pTau)
"O=C(Nc1cnc(Cl)cc1C(O)C1CC1)c1ccnc(Nc2ccc(C(F)(F)F)cn2)c1 (stereo not drawn) [Example 93, N-(6-Chloro-4-(cyclopropyl(hydroxy)methyl)pyridin-3-yl)-2-((5-(trifluoromethyl)pyridin-2-yl)amino)isonicotinamide]",2.6,9.11,6.96
"CCOc1ccncc1NC(=O)c1ccnc(Nc2nccc3ccccc23)c1 [Example 12, N-(4-Ethoxypyridin-3-yl)-2-(isoquinolin-1-ylamino)isonicotinamide]",5.9,7.46,5.27
"CC1(C)CN(c2ccncc2NC(=O)c2ccnc(Nc3ccc(C(F)(F)F)cn3)c2)CCO1 [Example 22, N-(4-(2,2-Dimethylmorpholino)pyridin-3-yl)-2-((5-(trifluoromethyl)pyridin-2-yl)amino)isonicotinamide]",0.48,9.51,7.74
"NS(=O)(=O)c1ccc(Nc2cc(C(=O)Nc3cncc(-c4ccccc4F)c3)ccn2)nc1 [Example 156, N-(5-(2-Fluorophenyl)pyridin-3-yl)-2-((5-sulfamoylpyridin-2-yl)amino)isonicotinamide]",3,8.80,5.25
"CC(O)(c1cnncc1NC(=O)c1ccnc(Nc2ccc(C(F)(F)F)cn2)c1)C1CC1 (stereo not drawn) [Example 203, N-(5-(1-Cyclopropyl-1-hydroxyethyl)pyridazin-4-yl)-2-((5-(trifluoromethyl)pyridin-2-yl)amino)isonicotinamide]",1.2,9.03,5.00
"N#Cc1ccc(Nc2cc(C(=O)Nc3cnccc3-c3ccccc3)ccn2)nc1 [Example 10, 2-((5-Cyanopyridin-2-yl)amino)-N-(4-phenylpyridin-3-yl)isonicotinamide]",0.98,9.24,7.57
"N#Cc1ccc(Nc2cc(C(=O)Nc3cnccc3-c3ccc(F)cc3F)ccn2)nc1 [Example 57, 2-((5-Cyanopyridin-2-yl)amino)-N-(4-(2,4-difluorophenyl)pyridin-3-yl)isonicotinamide]",1.3,9.23,7.72
"CC1CC1COc1cncc(NC(=O)c2ccnc(Nc3cccc(C(F)(F)F)n3)c2)c1 (stereo not drawn) [Example 126, N-(5-((2-Methylcyclopropyl)methoxy)pyridin-3-yl)-2-((6-(trifluoromethyl)pyridin-2-yl)amino)isonicotinamide]",9.7,8.32,5.49
"O=C(Nc1cncc(-c2ccccc2F)c1)c1ccnc(Nc2ccc(N3CCOCC3)cn2)c1 [Example 140, N-(5-(2-Fluorophenyl)pyridin-3-yl)-2-((5-morpholinopyridin-2-yl)amino)isonicotinamide]",6.7,8.00,6.01
"N#Cc1cccc(Nc2cc(C(=O)Nc3cncc(-c4cccc(F)c4C#N)c3)ccn2)n1 [Example 166, N-(5-(2-Cyano-3-fluorophenyl)pyridin-3-yl)-2-((6-cyanopyridin-2-yl)amino)isonicotinamide]",0.91,9.55,6.41
"O=C(Nc1cnccc1-c1ccc(F)cc1)c1ccnc(Nc2cccc(Cl)n2)c1 [Example 48, 2-((6-Chloropyridin-2-yl)amino)-N-(4-(4-fluorophenyl)pyridin-3-yl)isonicotinamide]",2.9,8.72,6.57
"O=C(Nc1cnccc1OCC(F)F)c1ccnc(Nc2ccc(C(F)(F)F)cn2)c1 [Example 42, N-(4-(2,2-Difluoroethoxy)pyridin-3-yl)-2-((5-(trifluoromethyl)pyridin-2-yl)amino)isonicotinamide]",0.49,9.57,7.68
"O=C(Nc1cncc(N2CCOCC2)c1)c1ccnc(Nc2ccc(C(F)(F)F)cn2)c1 [Example 121, N-(5-Morpholinopyridin-3-yl)-2-((5-(trifluoromethyl)pyridin-2-yl)amino)isonicotinamide]",25,7.92,5.82
